Patent publication US8461078B2 (priority 2009, dated 2013)

Assays:
[1] = system: Leptosphaeria nodorum (LEPTNO); assay: In vitro fungitoxicity (growth inhibition) against Leptosphaeria nodorum in copper-minus and copper-plus medium; assay type: cell-based; conditions: 0.05 μg/mL, 72 h at 25° C.; for LEPTNO % Inhn. Plus Copper Observed: copper-plus medium (CuCl2, 10 μM); for inhibition of growth at 0.05 µg/mL: Parastagonospora nodorum, read-out: LEPTNO % Inhn. Minus Copper Observed
Procedure: In vitro fungitoxicity assays against Leptosphaeria nodorum (LEPTNO) were conducted using the liquid growth medium described by Coursen and Sisler (American Journal of Botany 1960, 47, 541-549) except that copper micronutrient, normally included as CuSO4, was omitted. The medium, termed “copper-minus”, was prepared by dissolving 10 g glucose, 1.5 g K2HPO4, 2 g KH2PO4 and 1 g (NH4)2SO4 in 1 liter of deionized water and treating the solution with 0.5 g Chelex 100 resin (Bio-Rad Analytical grade, 50-100 mesh, sodium form, cat #142-2822) by stirring at room temperature for 1 h. MgSO4.7H2O (0.5 g) was added, and stirring was continued for a further hour. Trace elements (minus CuSO4), and vitamins described by Coursen and Sisler were added from concentrated stock solutions and the entire medium was sterilized by filtration. Medium containing copper was prepared by adding CuCl2.2H2O to the copper-minus medium at 20 μM. Test compounds were dissolved in dimethylsulfoxide (DMSO) then dilutions in copper-minus and copper-plus growth media were prepared as 100 μL aliquots in flat-bottomed 96-well microtiter plates.
LEPTNO was grown on potato dextrose agar in 9 cm diameter petri dishes for 7 days. Sterile deionized water (20 mL) was added to a culture plate and spores suspended by scraping the surface gently with a sterile plastic loop. The resulting suspension was filtered through a double layer of sterile cheesecloth. Filtered spore suspension (5 mL) was centrifuged in a bench centrifuge at 2000 rpm for 2 min. The resulting spore pellet was resuspended in 10 mL sterile deionized water (which had been treated with Chelex 100 resin using 0.5 g resin per liter of water by stirring at room temperature for 1 h), and recentrifuged. The spores were resuspended in copper-minus medium, and the suspension adjusted to 2×10^5 spores per mL. Microtiter plates were inoculated with 100 μL of this spore suspension and the plates incubated at 25° C. for 72 h before assessing fungal growth by measuring light scattering in a NepheloStar plate reader. Growth inhibition was determined by comparing growth in the presence of test compound with growth in control wells lacking test compound.
Results for growth inhibition by test compounds in copper-plus medium (“% Inhn Plus Copper Observed”) were compared with predicted values (“% Inhn Plus Copper Predicted”) that were calculated using the formula set forth by S. R. Colby in Weeds 1967, 15, 20-22 based on results obtained for the same compounds in copper-minus medium (“% Inhn Minus Copper Observed”) and the inhibition attributed to copper chloride alone, as determined by comparing growth in copper-minus and copper-plus media without any test compound across experiments. Results illustrate that hydrazones and copper produce a synergistic fungitoxic effect towards LEPTNO.

Phytophthora infestans = assay type: in vivo, Phytophthora infestans on tomato plant; conditions: 50 ppm hydrazone with 50 μM CuCl2.2H2O; applied 24 h before inoculation; assessed 7 days after inoculation; tomato
Phytophthora capsici = assay: In vitro fungitoxicity (growth inhibition) against Phytophthora capsici in copper-minus AS and copper-plus AS medium; assay type: cell-based; conditions: CuCl2, 50 uM; no test compound; across experiments
Procedure: In vitro fungitoxicity assays against Phytophthora capsici were conducted using the asparagine-sucrose (AS) medium described in Canadian Journal of Microbiology 1961, 7, 15-25, except that copper micronutrient, normally included as CuSO4, was omitted. The medium, termed “copper-minus AS”, was prepared by dissolving 2 g asparagine, 0.43 g KH2PO4, 0.3 g K2HPO4, 0.4 mL of a 0.5 mg/mL thiamine-HCl solution and 15 g sucrose in 1 liter of deionized water and treating the solution with 0.5 g Chelex 100 resin (Bio-Rad Analytical grade, 50-100 mesh, sodium form, cat #142-2822) by stirring at room temperature for 1 h. The pH was adjusted to 6.4, then MgSO4.7H2O (100 μg/mL), FeSO4.7H2O (1 μg/mL), CaCl2 (50 μg/mL), ZnSO4.7H2O (1 μg/mL), NaMoO4.2H2O (0.2 μg/mL) and MnCl2.4H2O (0.2 μg/mL) were added and the entire medium was sterilized by filtration. […]
Phytophthora capsici was grown on petri plates, 9 cm in diameter, containing 15 mL V-8 agar, pH 7.0, containing 200 mL V-8 juice, 4 g CaCO3, and 20 g agar per liter. […] Microtiter plates were inoculated with 100 μL of spore suspension and incubated at 25° C. for 48 h before assessing fungal growth by measuring light scattering in a NepheloStar plate reader. Growth inhibition was determined by comparing growth in the presence of test compound with growth in control wells lacking test compound. […]

[2] = system: Staphylococcus aureus, Escherichia coli, Aspergillus niger and A. flavus; conditions: literature report (Proc. Natl. Acad. Sci. India 1991); cited from earlier work

Which “LEPTNO % Inhn. Minus Copper Observed” value ([1]; copper-minus medium) does the source give for O=C(N/N=C/c1cc(Cl)ccc1O)c1ccc(C(F)(F)F)cc1 [Compound 33] here?
Its value is 20.7%.

With O=C(N/N=C/c1cc(Cl)cc(Cl)c1O)c1cc(Cl)ccc1Br [Compound 36] as the molecule, how does the “LEPTNO % Inhn. Plus Copper Observed” value [1] read?
The value was 92.5%.

What about the inhibition of growth at 0.05 µg/mL ([1]; copper-minus medium) of the same molecule?
Its inhibition of growth at 0.05 µg/mL is 0%.

What about the “TLB % Control” value (Phytophthora infestans) of the same molecule?
The value was 70.9%.

Which results are given for O=C(N/N=C/c1cc(Br)cc(Br)c1O)c1cc(Cl)ccc1Br [Compound 37]?
LEPTNO % Inhn. Plus Copper Observed [1]: 97.9%; inhibition of growth at 0.05 µg/mL ([1]; copper-minus medium): 34.5%; TLB % Control (Phytophthora infestans): 68.4%

With O.O.[Cl][Cu][Cl] [CuCl2, CuCl2.2H2O, reference compound] as the molecule, how does the “% Inhn attributed to copper chloride alone (Phytophthora capsici)” value (Phytophthora capsici) read?
Its value is 4.5 ± 7.9%.

For O=C(NN=Cc1ccccc1O)c1ccccc1O [o-hydroxybenzaldehyde-N-salicyloylhydrazone], which Antimicrobial activity [2] is on record?
The Antimicrobial activity was “Antimicrobial activity has been reported”.
